Here are results for 4 compounds from ChEMBL document CHEMBL1201862, “PubChem BioAssay data set” (2004).

Activity calls are given as the source filed them.

The nature of assay [1]: cytotoxicity toward NIH3T3 fibroblasts, dose response, counter-screen, cell-based, ATP luminescence, mouse fibroblasts (AID 2010).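 Also: cells exposed to compound for about 90 hours before reading.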 The format is functional.
A short description of assay [2]: inhibitors of intracellular T. cruzi replication, confirmation, NIH3T3 host cells, beta-gal luminescence (AID 2044).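 Also: intracellular parasites grown in NIH/3T3 mouse fibroblasts as host cells; luminescent beta-galactosidase reporter signal from transgenic T. cruzi replicating inside host cells; inhibitors lower the luminescence signal.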 The format is functional, cell-based.
Assay [3] concerns the target Sphingosine 1-phosphate receptor 1 (Homo sapiens, UniProt P21453). Put plainly: Fluorescence-based counterscreen assay for S1P4 agonists: Cell-based dose response high throughput screening assay to identify agonists of the Sphingosine 1-Phosphate Receptor 1 (S1P1). [Related pubchem assays (depositor defined):AID1509, AID1523, AID1801, AID463107, AID463118, AID463119, AID463122, AID463123, AID463129, AID463225, AID504400, AID504460]. Type of assay: functional. For orientation: A counterscreen serves to expose hits that act by an unwanted route or on another target.

Assay [4] deals with T1, Sphingosine 1-phosphate receptor 4 (Homo sapiens, UniProt O95977).
T1 sequence (O95977 whole entry): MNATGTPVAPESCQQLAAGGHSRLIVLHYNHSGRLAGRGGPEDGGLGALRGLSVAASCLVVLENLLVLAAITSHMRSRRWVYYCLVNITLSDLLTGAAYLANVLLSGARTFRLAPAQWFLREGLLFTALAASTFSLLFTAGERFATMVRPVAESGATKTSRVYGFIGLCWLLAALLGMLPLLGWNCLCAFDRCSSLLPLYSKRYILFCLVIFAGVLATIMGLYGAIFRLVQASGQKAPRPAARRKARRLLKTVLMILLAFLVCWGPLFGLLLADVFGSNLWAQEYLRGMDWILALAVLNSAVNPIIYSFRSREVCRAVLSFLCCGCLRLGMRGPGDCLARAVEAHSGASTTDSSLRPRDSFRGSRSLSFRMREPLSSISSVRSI
Put plainly: Fluorescence dose response cell-based high throughput screening assay for agonists of the Sphingosine 1-Phosphate Receptor 4 (S1P4). [Related pubchem assays: 1509 (Primary screen.), 1523 (Confirmation screen in triplicates.)]. The format is functional.

Assay [5] concerns the target T2, Delta-type opioid receptor (Homo sapiens, UniProt P41143). Put plainly: HTS Image-Based Screen for Antagonists of the DOR Receptor. [Related pubchem assays (depositor defined):AID1777, AID1785, AID1786, AID2133]. The format is functional.
The next assay deals with Beta-galactosidase (Escherichia coli, UniProt Q8VNN2). The format is functional.
Beta-galactosidase, sequence (Q8VNN2 whole entry): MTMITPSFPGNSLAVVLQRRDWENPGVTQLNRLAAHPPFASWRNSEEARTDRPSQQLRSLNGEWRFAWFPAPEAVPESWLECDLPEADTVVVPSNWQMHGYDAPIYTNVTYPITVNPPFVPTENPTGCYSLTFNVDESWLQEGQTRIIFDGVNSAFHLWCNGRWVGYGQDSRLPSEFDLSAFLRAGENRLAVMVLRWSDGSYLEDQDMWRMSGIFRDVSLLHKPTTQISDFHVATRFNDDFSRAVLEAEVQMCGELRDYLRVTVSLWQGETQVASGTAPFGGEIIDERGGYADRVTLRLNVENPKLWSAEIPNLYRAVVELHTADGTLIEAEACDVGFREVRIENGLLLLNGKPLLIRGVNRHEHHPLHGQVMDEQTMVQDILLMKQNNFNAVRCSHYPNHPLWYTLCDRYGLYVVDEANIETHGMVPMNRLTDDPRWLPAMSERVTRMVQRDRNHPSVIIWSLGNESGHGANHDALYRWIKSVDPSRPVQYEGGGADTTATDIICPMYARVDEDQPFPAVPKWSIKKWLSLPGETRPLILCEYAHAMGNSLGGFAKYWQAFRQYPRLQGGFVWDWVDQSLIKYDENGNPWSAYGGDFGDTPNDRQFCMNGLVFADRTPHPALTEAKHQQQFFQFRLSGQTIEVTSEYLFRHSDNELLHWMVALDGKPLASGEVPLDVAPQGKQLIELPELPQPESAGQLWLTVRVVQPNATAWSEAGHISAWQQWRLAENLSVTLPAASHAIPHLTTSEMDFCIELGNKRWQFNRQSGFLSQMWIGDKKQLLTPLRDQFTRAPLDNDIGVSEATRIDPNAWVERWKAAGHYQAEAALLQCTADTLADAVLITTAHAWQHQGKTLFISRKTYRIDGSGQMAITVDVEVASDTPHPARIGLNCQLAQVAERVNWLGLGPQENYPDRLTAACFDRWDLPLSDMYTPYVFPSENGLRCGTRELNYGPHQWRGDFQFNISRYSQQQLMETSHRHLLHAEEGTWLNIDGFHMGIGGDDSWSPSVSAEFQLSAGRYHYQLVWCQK
The next assay deals with Mu-type opioid receptor (Homo sapiens, UniProt P35372). Put plainly: HTS Image-Based Screen for Agonists of the MOR Receptor. [Related pubchem assays (depositor defined):AID1777, AID1785, AID1786, AID2133]. Type of assay: functional.
Mu-type opioid receptor, sequence (P35372 whole entry): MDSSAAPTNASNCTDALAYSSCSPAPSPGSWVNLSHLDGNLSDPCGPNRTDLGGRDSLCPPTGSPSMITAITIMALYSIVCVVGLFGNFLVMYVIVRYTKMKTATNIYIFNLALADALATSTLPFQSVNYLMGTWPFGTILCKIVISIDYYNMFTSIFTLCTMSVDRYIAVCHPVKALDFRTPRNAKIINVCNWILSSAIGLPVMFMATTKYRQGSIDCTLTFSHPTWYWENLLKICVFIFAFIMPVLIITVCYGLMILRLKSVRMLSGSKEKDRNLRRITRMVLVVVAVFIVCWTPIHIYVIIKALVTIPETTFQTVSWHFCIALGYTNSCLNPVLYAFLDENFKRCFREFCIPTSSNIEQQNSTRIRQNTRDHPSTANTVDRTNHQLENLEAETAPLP
The target in assay [6] is T3, Kappa-type opioid receptor (Homo sapiens, UniProt P41145). The format is functional.
T3 sequence (P41145 whole entry): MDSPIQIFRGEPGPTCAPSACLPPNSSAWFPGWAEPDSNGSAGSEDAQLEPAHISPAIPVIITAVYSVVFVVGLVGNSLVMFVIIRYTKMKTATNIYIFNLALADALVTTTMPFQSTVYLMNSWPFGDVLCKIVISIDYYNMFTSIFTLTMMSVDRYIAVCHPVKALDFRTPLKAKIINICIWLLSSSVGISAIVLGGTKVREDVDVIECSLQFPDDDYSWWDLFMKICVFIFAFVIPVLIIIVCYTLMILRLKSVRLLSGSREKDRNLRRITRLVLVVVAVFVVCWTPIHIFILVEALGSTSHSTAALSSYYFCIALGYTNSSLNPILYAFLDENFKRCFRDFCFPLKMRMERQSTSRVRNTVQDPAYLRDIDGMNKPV
Assay [7] deals with T3, Kappa-type opioid receptor. The format is functional. This is another data set of the same source.
Assay [8] is described as follows: HEp-2 cell cytotoxicity, dose response, cytotoxicity control for RSV inhibitor project, HTS (AID 2410). The format is functional. Particulars: human respiratory syncytial virus.
Assay [9] concerns the target T2, Delta-type opioid receptor. Put plainly: HTS Image-Based Screen for Agonists of the DOR Receptor. [Related pubchem assays (depositor defined):AID1777, AID1786, AID2133]. The format is functional.
Assay [10] in a line: Counterscreen for AddAB inhibitors: absorbance-based bacterial cell-based high throughput dose response assay for inhibitors of bacterial viability. [Related pubchem assays (depositor defined):AID435030, AID449728, AID449731, AID488942, AID488955, AID488956]. The format is functional.
Assay [11] relates to HEK293. Put plainly: NOD1 signaling inhibitors, primary screen, cell-based, luminescence, uHTS (AID 1578). Type of assay: functional. Conditions: Homo sapiens.
Another assay addresses Exodeoxyribonuclease V (Escherichia coli (strain K12), UniProt P04993+P07648+P08394). Put plainly: E. coli RecBCD inhibitors, dose response, counter-screen for AddAB inhibitor project, absorbance, V66 E. coli, mutant T4 phage (AID 492957). The format is functional, cell-based, Escherichia coli str. K-12 substr. MG1655.
Assay [12] deals with Nucleotide-binding oligomerization domain-containing protein 2 (Homo sapiens, UniProt Q9HC29). Put plainly: NOD2 signaling inhibitors, cell-based, luminescence, uHTS, HEK293 (AID 1566). Type of assay: functional.
Nucleotide-binding oligomerization domain-containing protein 2, sequence (Q9HC29 whole entry, the tested form may be a part): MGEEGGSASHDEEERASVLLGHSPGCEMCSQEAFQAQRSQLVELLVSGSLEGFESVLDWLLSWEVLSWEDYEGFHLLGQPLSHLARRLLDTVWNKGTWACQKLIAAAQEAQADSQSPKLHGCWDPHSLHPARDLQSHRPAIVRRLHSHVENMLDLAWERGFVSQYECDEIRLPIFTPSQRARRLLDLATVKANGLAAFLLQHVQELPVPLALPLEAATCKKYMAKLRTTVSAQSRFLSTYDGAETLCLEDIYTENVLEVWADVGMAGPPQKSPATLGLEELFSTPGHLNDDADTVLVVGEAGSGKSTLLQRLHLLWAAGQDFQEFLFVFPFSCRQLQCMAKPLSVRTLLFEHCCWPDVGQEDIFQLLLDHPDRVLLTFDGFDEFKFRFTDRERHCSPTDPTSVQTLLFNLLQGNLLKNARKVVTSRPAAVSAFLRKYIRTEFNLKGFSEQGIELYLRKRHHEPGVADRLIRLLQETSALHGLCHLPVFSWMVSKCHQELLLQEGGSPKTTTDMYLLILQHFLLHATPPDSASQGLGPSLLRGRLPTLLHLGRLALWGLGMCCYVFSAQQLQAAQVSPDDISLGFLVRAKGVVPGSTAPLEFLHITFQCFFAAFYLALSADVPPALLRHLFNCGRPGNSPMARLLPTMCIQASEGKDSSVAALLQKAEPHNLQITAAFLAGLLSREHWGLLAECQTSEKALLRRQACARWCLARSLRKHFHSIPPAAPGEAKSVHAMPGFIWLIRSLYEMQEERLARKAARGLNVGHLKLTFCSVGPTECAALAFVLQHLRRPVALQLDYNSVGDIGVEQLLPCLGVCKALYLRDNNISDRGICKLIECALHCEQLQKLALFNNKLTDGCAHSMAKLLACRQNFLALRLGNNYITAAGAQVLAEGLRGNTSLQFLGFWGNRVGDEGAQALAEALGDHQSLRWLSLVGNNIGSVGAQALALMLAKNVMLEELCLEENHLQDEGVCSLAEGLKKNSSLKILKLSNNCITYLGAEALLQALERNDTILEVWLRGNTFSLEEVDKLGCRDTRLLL
The subject of assay [13] is HEK293. Put plainly: cells. Type of assay: functional, cell-based. Conditions: Homo sapiens.
Assay [14] concerns HEK293. Put plainly: cells. Particulars: Homo sapiens. The format is functional, cell-based. This is another data set of the same source.
Assay [15] deals with HEK293. Put plainly: cells. The format is functional, cell-based. Conditions: Homo sapiens. The source holds these as a separate data set.
The nature of assay [16]: THP-1 cell cytotoxicity, dose response, cytotoxicity control for non-replicating M. tuberculosis project (AID 489025). Type of assay: functional.
A further assay in a line: cells. The format is functional.
For assay [17], the system named is HEK293. Put plainly: NOD2 signaling inhibitors in MDP-stimulated cells, cell-based, uHTS, luminescence (AID 2001). The format is functional. Conditions: Homo sapiens.
The target in assay [18] is T4, Tyrosine-protein phosphatase non-receptor type 22 (Homo sapiens, UniProt Q9Y2R2).
T4 sequence (Q9Y2R2 whole entry): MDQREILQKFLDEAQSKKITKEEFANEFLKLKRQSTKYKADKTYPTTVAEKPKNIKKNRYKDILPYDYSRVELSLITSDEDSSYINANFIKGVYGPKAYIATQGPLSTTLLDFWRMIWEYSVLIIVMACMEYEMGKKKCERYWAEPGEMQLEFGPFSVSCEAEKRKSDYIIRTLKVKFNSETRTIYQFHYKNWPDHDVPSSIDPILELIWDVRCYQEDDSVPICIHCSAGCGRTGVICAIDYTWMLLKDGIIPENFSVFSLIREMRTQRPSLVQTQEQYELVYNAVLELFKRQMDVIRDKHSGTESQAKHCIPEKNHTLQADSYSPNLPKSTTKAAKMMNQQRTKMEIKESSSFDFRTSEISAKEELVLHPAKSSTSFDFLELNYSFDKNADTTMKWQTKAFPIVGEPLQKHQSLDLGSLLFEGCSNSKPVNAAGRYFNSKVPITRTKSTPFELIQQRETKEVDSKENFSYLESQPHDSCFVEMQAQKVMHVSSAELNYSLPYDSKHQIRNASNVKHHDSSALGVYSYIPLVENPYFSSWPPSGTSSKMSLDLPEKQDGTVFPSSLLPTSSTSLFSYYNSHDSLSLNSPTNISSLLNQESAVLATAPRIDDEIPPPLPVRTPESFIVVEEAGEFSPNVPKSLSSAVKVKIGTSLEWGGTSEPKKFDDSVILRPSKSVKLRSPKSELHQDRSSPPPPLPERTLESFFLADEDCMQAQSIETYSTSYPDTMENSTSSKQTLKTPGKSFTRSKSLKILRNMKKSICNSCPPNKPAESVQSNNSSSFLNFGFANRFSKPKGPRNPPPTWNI
The format is functional.

Assay [19] has as its target T5, Tyrosine-protein phosphatase non-receptor type 7 (Homo sapiens, UniProt P35236).
T5 sequence (P35236 whole entry): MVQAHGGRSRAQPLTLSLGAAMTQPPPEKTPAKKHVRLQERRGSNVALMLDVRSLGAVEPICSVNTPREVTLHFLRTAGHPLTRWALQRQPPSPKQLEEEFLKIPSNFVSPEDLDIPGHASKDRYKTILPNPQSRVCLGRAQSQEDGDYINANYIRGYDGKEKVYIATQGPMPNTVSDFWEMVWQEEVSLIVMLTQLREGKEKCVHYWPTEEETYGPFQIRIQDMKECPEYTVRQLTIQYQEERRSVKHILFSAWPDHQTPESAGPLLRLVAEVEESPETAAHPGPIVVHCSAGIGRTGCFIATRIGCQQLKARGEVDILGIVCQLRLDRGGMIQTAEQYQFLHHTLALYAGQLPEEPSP
Type of assay: functional.

In assay [20] the target is T4, Tyrosine-protein phosphatase non-receptor type 22. The format is functional. This is another data set of the same source.
The target in the next assay is T6, Hexokinase HKDC1 (Homo sapiens, UniProt Q2TB90).
T6 sequence (Q2TB90 whole entry): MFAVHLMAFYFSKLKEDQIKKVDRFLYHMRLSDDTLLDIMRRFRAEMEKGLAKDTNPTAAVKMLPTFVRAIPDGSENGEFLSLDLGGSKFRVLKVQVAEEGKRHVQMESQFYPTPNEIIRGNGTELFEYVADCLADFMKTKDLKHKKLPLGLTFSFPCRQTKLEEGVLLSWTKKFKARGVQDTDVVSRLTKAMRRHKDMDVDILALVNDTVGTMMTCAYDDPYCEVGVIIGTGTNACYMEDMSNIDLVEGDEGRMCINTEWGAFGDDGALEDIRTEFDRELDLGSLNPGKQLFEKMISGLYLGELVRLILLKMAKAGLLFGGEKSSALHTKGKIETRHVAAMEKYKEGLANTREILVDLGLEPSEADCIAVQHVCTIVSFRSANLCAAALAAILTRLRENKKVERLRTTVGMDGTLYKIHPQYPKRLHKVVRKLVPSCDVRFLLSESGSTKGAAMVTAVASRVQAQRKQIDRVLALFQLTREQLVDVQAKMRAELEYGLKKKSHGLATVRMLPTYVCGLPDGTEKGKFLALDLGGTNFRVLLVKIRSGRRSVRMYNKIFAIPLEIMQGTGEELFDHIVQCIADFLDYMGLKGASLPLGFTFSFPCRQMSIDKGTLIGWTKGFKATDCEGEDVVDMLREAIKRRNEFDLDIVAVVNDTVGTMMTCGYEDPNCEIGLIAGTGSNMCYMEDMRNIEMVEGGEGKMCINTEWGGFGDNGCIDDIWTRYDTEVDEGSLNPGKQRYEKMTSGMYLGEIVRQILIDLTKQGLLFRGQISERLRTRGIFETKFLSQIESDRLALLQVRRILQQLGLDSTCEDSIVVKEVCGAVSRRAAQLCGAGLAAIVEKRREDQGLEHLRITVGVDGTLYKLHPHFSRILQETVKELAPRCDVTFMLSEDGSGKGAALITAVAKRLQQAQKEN
Put plainly: HKDC1 hexokinase activators, dose response, biochemical, W721R variant (AID 504730). Type of assay: functional.

Another assay addresses T7, Hexokinase-1 (Homo sapiens, UniProt P19367).
T7 sequence (P19367 whole entry): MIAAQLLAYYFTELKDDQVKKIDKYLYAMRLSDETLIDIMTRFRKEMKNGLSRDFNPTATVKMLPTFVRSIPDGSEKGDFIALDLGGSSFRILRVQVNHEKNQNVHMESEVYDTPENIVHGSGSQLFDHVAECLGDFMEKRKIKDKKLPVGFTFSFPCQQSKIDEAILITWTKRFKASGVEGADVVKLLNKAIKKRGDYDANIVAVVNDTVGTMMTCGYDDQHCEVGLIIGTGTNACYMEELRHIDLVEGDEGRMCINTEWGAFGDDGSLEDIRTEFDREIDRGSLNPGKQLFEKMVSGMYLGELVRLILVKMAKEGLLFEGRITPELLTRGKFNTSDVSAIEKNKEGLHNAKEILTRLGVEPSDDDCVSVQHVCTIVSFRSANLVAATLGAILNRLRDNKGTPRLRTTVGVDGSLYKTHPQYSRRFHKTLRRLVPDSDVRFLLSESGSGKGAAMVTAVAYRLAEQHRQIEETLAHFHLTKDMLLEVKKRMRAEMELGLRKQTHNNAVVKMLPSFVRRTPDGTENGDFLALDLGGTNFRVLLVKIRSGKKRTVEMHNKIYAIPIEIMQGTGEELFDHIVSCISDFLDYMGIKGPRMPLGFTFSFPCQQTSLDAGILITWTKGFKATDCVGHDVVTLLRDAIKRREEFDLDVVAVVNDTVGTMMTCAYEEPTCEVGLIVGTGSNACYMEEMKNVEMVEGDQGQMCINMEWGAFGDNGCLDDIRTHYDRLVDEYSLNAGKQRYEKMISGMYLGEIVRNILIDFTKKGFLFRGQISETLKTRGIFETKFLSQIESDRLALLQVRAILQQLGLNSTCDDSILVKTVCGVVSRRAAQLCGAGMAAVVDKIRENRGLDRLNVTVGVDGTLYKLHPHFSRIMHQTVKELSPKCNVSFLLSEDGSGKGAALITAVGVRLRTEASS
Put plainly: hexokinase 1 activators, dose response, selectivity assay for HKDC1 activator project, biochemical (AID 504762). Type of assay: functional.

T2 sequence (P41143 whole entry): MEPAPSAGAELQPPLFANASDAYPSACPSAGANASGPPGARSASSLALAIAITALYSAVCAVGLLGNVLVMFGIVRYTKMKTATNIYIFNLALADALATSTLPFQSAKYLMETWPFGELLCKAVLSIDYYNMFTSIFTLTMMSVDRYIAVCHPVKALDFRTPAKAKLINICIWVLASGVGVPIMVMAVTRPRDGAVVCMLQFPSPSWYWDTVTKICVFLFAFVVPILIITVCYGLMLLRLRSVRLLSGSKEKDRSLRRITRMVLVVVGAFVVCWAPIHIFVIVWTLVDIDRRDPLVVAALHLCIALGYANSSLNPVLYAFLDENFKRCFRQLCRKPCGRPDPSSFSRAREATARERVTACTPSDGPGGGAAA
Sphingosine 1-phosphate receptor 1, sequence (P21453 whole entry): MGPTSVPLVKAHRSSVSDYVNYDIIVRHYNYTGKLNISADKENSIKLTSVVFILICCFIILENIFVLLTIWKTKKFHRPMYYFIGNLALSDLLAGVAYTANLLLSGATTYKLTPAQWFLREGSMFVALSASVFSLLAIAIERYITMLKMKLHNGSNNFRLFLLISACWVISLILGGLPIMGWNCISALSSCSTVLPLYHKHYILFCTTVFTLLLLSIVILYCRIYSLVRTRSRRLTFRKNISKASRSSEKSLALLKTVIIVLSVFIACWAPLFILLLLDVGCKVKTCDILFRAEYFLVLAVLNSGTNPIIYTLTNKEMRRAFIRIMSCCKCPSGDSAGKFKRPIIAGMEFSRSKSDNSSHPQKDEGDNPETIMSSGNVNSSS

For the compound `CC(=O)C1=C(C)NC(SCC(=O)c2ccc(Cl)cc2Cl)=C(C#N)C1c1ccco1` (stereo unspecified), the half-maximal effective concentration (EC50) in [1] was 15.7 µM (active); in assay [2] it was 0.437 µM (active); in assay [3] it was > 49.8 µM (inactive); in [4], > 49.8 µM (not active).

Turning to `Nc1c2c(nc3sc4c(c13)CCCC4)CCCC2`, the IC50 was > 32 µM (inactive) in [5], 9.82 µM (active) in [6] and 6.99 µM in [7]. The EC50 was > 31.5 µM (inactive) at Beta-galactosidase, > 32 µM (inactive) at Mu-type opioid receptor and > 32 µM (inactive) in assay [9]. Also, the CC50 in assay [8] was 25.7 µM (active).

`Nc1nonc1C(=O)N/N=C/c1ccc([N+](=O)[O-])o1`: the IC50 was 14.9 µM (inactive) in assay [10]; 56.4 µM (inactive) at Exodeoxyribonuclease V; > 20 µM (inactive) in the assay on HEK293 [13]; > 20 µM (inactive) with HEK293 [14]; > 20 µM (inactive) with HEK293 [15]; 7.01 µM (active) in “cells”. Further, in the assay on HEK293 [17], the IC50 is > 20 µM (inactive). Further, the EC50 in the assay with HEK293 [11] is 8.5 µM (active); in assay [12] it was 5.54 µM (active). The half-maximal cytotoxic concentration (CC50) in [16] is > 40 µM (active).

Regarding `COc1cc(SC#N)ccc1/N=C/c1c(C)[nH]n(-c2ccc(Cl)cc2)c1=O`, the IC50 in assay [18], in assay [19] and in assay [20] was > 79.4 µM (inactive) in each case. For the same compound, the EC50 at Hexokinase HKDC1 and on Hexokinase-1 was > 80 µM (inactive) throughout.

As a reminder, the EC50 is the midpoint of the concentration-response curve. The term IC50 denotes the concentration needed to halve the response being measured. As a reminder, the CC50 is the concentration that lowers cell viability or growth by half.
